Article PMC5192521, “Flavin-Dependent Redox Transfers by the Two-Component Diketocamphane Monooxygenases of Camphor-Grown Pseudomonas putida NCIMB 10007” (Microorganisms, 2016)
One block for each molecule: values may come before it.

What was measured:
[1] = target: T1, 2,5-DKCMO (2,5-diketocamphane monooxygenase; 25DKCMO); assay: spectrophotometric titration at […] nm; type: binding, Pseudomonas putida; conditions: aerobic, Tris-HCl pH 7.6, 10 µM FMN
T1 construct: gene camE25-1; oxygenating subunit, native purification from camphor-grown cells; CAM plasmid-coded; homodimer; nine Trp per monomer

[2] = tested on: T2, Frp2 (28.5 kDa ferric reductase); assay: initial rate of A340 decrease, Lineweaver-Burk; type: biochemical, Pseudomonas putida; conditions: anaerobic, DCPIP as terminal acceptor
T2 construct: native purification from camphor-grown cells; chromosome-coded

[3] = target: T3, 3,6-DKCMO (3,6-diketocamphane monooxygenase; 36DKCMO) (Pseudomonas putida, UniProt D7UER1); assay: spectrophotometric titration at […] nm; type: binding
T3 construct: gene camE36; oxygenating subunit, native purification from camphor-grown cells; CAM plasmid-coded; homodimer; five Trp per monomer
T3 sequence (D7UER1 1-378): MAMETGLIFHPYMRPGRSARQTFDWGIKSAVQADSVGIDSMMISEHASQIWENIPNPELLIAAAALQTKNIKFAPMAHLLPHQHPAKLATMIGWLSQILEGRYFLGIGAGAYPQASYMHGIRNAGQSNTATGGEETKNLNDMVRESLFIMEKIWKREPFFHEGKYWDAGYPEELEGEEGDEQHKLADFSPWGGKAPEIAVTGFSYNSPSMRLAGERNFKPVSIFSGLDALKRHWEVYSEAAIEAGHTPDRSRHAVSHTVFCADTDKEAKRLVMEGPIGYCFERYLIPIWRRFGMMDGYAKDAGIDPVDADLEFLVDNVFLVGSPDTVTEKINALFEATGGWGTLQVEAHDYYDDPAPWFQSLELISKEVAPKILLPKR

[4] = tested on: T4, Frp1 (27.0 kDa ferric reductase); assay: initial rate of A340 decrease, Lineweaver-Burk; type: biochemical, Pseudomonas putida; conditions: anaerobic, DCPIP as terminal acceptor
T4 construct: native purification from camphor-grown cells; chromosome-coded

[5] = target: T3, 3,6-DKCMO (3,6-diketocamphane monooxygenase; 36DKCMO); assay: tryptophan fluorescence quenching titration (ex […] nm, em […] nm); type: binding
[6] = target: T1, 2,5-DKCMO (2,5-diketocamphane monooxygenase; 25DKCMO); assay: as above; type: binding, Pseudomonas putida; conditions: anaerobic, 60 mM Tris/HCl pH 7.6, 10 µM enzyme; FNR made by photoreduction with EDTA
[7] = substrate: NC(=O)C1=CN([C@@H]2O[C@H](COP(=O)(O)OP(=O)(O)OC[C@H]3O[C@@H](n4cnc5c(N)ncnc54)[C@H](O)[C@@H]3O)[C@@H](O)[C@H]2O)C=CC1; assay: initial rate of A340 decrease, Lineweaver-Burk; type: biochemical, Pseudomonas putida; conditions: anaerobic
[8] = substrate: Cc1cc2nc3c(=O)[nH]c(=O)nc-3n(C[C@H](O)[C@H](O)[C@H](O)COP(=O)(O)O)c2cc1C; assay: initial rate of A340 decrease, Lineweaver-Burk; type: biochemical, Pseudomonas putida; conditions: anaerobic, 60 mM Tris/HCl pH 7.6, NADH as donor, cytochrome c as terminal acceptor
[9] = 60 mM Tris/HCl pH 7.6, NADH as donor
[10] = 60 mM Tris/HCl pH 7.6, FMN as acceptor
[11] = 60 mM Tris/HCl pH 7.6, 10 µM putidaredoxin plus 30 µM cytochrome c as acceptor

Kd [1]: 109 µM | Km [2, 9]: 8.6 µM | Kd [3]: 125 µM | Km [4, 9]: 6.9 µM
Molecule: Cc1cc2nc3c(=O)[nH]c(=O)nc-3n(C[C@H](O)[C@H](O)[C@H](O)COP(=O)(O)O)c2cc1C [FMN]

Km ([4]; 60 mM Tris/HCl pH 7.6, NADH as donor, kcat as printed although text calls FAD activity much lower): 68.8 µM
Molecule: Cc1cc2nc3c(=O)[nH]c(=O)nc-3n(C[C@H](O)[C@H](O)[C@H](O)COP(=O)(O)OP(=O)(O)OC[C@H]3O[C@@H](n4cnc5c(N)ncnc54)[C@H](O)[C@@H]3O)c2cc1C [FAD]

Km [2, 10]: 36 µM | Km [4, 10]: 23 µM
Molecule: NC(=O)C1=CN([C@@H]2O[C@H](COP(=O)(O)OP(=O)(O)OC[C@H]3O[C@@H](n4cnc5c(N)ncnc54)[C@H](O)[C@@H]3O)[C@@H](O)[C@H]2O)C=CC1 [NADH]

Kd [5]: 0.24 µM | Kd [6]: 0.21 µM
Molecule: Cc1cc2c(cc1C)N(C[C@H](O)[C@H](O)[C@H](O)COP(=O)(O)O)c1[nH]c(=O)[nH]c(=O)c1N2 [FNR]

Km [2, 10]: 92 µM
Molecule: NC(=O)C1=CN([C@@H]2O[C@H](COP(=O)(O)OP(=O)(O)OC[C@H]3O[C@@H](n4cnc5c(N)ncnc54)[C@H](OP(=O)(O)O)[C@@H]3O)[C@@H](O)[C@H]2O)C=CC1 [NADPH]

B1: PdR (putidaredoxin reductase) (Pseudomonas putida) (protein)
chain: MNANDNVVIVGTGLAGVEVAFGLRASGWEGNIRLVGDATVIPHHLPPLSKAYLAGKATAESLYLRTPDAYAAQNIQLLGGTQVTAINRDRQQVILSDGRALDYDRLVLATGGRPRPLPVASGAVGKANNFRYLRTLEDAECIRRQLIADNRLVVIGGGYIGLEVAATAIKANMHVTLLDTAARVLERVTAPPVSAFYEHLHREAGVDIRTGTQVCGFEMSTDQQKVTAVLCEDGTRLPADLVIAGIGLIPNCELASAAGLQVDNGIVINEHMQTSDPLIMAVGDCARFHSQLYDRWVRIESVPNALEQARKIAAILCGKVPRDEAAPWFWSDQYEIGLKMVGLSEGYDRIIVRGSLAQPDFSVFYLQGDRVLAVDTVNRPVEFNQSKQIITDRLPVEPNLLGDESVPLKEIIAAAKAELSSA
notes: native purification from camphor-grown cells; FAD flavoprotein; CAM plasmid-coded
Km [7, 11]: 5.9 µM | kcat [7, 11]: 102 s⁻¹

B2: Fred (Pseudomonas putida) (protein)
chain: TKVAAEIVRSAIDPQWFRAVLGQYPTGVCAVTAMDPDGKMSGMAVGSFTSVSLNPPLVAFLPDRSSTSWPKIERAGKFCVNVLSDQQLGVCKRFASKDEDKFSGLVYRLSDNGSPIIEGVVAWIDCDLHSVQEAGDHYIVIGSVRELQVESEDSALLFYRGGYGGFAAI
notes: native purification from camphor-grown cells; chromosome-coded; 36 kDa homodimer
Km [8]: 4.2 µM | kcat [8]: 294 s⁻¹ | Km ([7]; 60 mM Tris/HCl pH 7.6, FMN as acceptor, cytochrome c as terminal acceptor): 28 µM
